Each molecule was assayed against T1, human HIF-PHD2 (Homo sapiens, UniProt Q9GZT9) (assay: HIF-PHD2 inhibition, time resolved fluorescence assay of HIF-1α peptide hydroxylation). Details: FLAG-tagged full length PHD2; 0.2 μM 2-oxoglutarate, 0.5 μM HIF-1α peptide.
T1 construct: FLAG-tagged full length PHD2 expressed in and purified from baculovirus-infected Sf9 cells; FLAG; made in house; host or cells: baculovirus-infected Sf9 cells
Format: biochemical
Description: To each well of a 384-well plate, 1 μL of test compounds in DMSO (final concentration ranging from 0.3 nM to 10 uM) were added into 20 μl of assay buffer (50 mM Tris pH 7.4/0.01% Tween-20/0.1 mg/ml bovine serum albumin/10 μM ferrous sulfate/1 mM sodium ascorbate/20 μg/ml catalase) containing 0.15 μg/ml FLAG-tagged full length PHD2 expressed in and purified from baculovirus-infected Sf9 cells. After a 5 min preincubation at room temperature, the enzymatic reactions were initiated by the addition of 4 μL of substrates {final concentrations of 0.2 μM 2-oxoglutarate and 0.5 μM HIF-1α peptide biotinyl-[…] […] After incubation for 45 minutes at room temperature, the reactions were terminated by the addition of a 25 μL quench/detection mix to a final concentration of 1 mM ortho-phenanthroline, 0.1 mM EDTA, 0.5 nM anti-(His)6 LANCE reagent (Perkin-Elmer Life Sciences), 100 nM AF647-labeled streptavidin (Invitrogen), and 2 μg/ml (His)6-VHL complex {S. Tan Protein Expr. Purif.

T1 sequence (Q9GZT9 whole entry): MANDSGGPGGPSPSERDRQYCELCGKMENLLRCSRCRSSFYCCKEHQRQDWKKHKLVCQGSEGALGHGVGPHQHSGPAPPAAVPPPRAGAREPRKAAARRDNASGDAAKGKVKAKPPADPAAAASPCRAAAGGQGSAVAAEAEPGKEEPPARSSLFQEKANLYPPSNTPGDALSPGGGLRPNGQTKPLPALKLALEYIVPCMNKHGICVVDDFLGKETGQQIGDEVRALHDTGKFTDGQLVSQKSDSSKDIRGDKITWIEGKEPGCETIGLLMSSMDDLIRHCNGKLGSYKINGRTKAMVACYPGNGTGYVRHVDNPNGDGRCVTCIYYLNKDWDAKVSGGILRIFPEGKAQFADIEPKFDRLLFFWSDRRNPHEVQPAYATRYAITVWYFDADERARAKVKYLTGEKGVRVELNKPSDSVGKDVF

| IC50 [nM] | Compound |
| --- | --- |
| 59.7 | O=C(N[C@H](CO)C(=O)O)c1c(O)c2c(n(Cc3ccc(C(F)(F)F)cc3)c1=O)COC2 [Example 1, (R)-3-Hydroxy-2-(4-hydroxy-2-oxo-1-(4-(trifluoromethyl)benzyl)-1,2,5,7-tetrahydrofuro[3,4-b]pyridine-3-carboxamido)propanoic acid] |
| 109 | O=C(N[C@@H](CO)C(=O)O)c1c(O)c2c(n(Cc3ccc(C(F)(F)F)cc3)c1=O)COC2 [Example 2, (S)-3-hydroxy-2-(4-hydroxy-2-oxo-1-(4-(trifluoromethyl)benzyl)-1,2,5,7-tetrahydrofuro[3,4-b]pyridine-3-carboxamido)propanoic acid] |
| 36.4 | C[C@H](NC(=O)c1c(O)c2c(n(Cc3ccc(C(F)(F)F)cc3)c1=O)COC2)C(=O)O [Example 3, (S)-2-(4-hydroxy-2-oxo-1-(4-(trifluoromethyl)benzyl)-1,2,5,7-tetrahydrofuro[3,4-b]pyridine-3-carboxamido)propanoic acid] |
| 9.2 | O=C(O)CNC(=O)c1c(O)c2c(n(Cc3cc[nH]n3)c1=O)COC2 [Example 4, 2-(1-((1H-pyrazol-3-yl)methyl)-4-hydroxy-2-oxo-1,2,5,7-tetrahydrofuro[3,4-b]pyridine-3-carboxamido)acetic acid] |
| 7 | CS(=O)(=O)c1ccc(Cn2c3c(c(O)c(C(=O)NCC(=O)O)c2=O)COC3)cc1 [Example 7, 2-(4-hydroxy-1-(4-(methylsulfonyl)benzyl)-2-oxo-1,2,5,7-tetrahydrofuro[3,4-b]pyridine-3-carboxamido)acetic acid] |
| 5.2 | Cc1ncsc1Cn1c2c(c(O)c(C(=O)NCC(=O)O)c1=O)COC2 [Example 8, 2-(4-hydroxy-1-((4-methylthiazol-5-yl)methyl)-2-oxo-1,2,5,7-tetrahydrofuro[3,4-b]pyridine-3-carboxamido)acetic acid] |
| 5.7 | O=C(O)CNC(=O)c1c(O)c2c(n(Cc3cncc(F)c3)c1=O)COC2 [Example 10, 2-(1-((5-fluoropyridin-3-yl)methyl)-4-hydroxy-2-oxo-1,2,5,7-tetrdhydrofuro[3,4-b]pyridine-3-carboxamido)acetic acid] |
| 3 | N#Cc1ccc(Cn2c3c(c(O)c(C(=O)NCC(=O)O)c2=O)COC3)c(F)c1 [Example 13, 2-(1-(4-cyano-2-fluorobenzyl)-4-hydroxy-2-oxo-1,2,5,7-tetrahydrofuro[3,4-b]pyridine-3-carboxamido)acetic acid] |
| 6.6 | O=C(O)CNC(=O)c1c(O)c2c(n(Cc3ccc(F)cn3)c1=O)COC2 [Example 14, 2-(1-((5-fluoropyridin-2-yl)methyl)-4-hydroxy-2-oxo-1,2,5,7-tetrahydrofuro[3,4-b]pyridine-3-carboxamido)acetic acid] |
| 9.7 | O=C(O)CNC(=O)c1c(O)c2c(n(Cc3ncco3)c1=O)COC2 [Example 15, 2-(4-hydroxy-1-(oxazol-2-ylmethyl)-2-oxo-1,2,5,7-tetrahydrofuro[3,4-b]pyridine-3-carboxamido)acetic acid] |
| 7.1 | Cn1ccc(Cn2c3c(c(O)c(C(=O)NCC(=O)O)c2=O)COC3)n1 [Example 16, 2-(4-hydroxy-1-((1-methyl-1H-pyrazol-3-yl)methyl)-2-oxo-1,2,5,7-tetrahydrofuro[3,4-b]pyridine-3-carboxamido)acetic acid] |
| 7.4 | O=C(O)CNC(=O)c1c(O)c2c(n(Cc3cnco3)c1=O)COC2 [Example 20, 2-(4-hydroxy-1-(oxazol-5-ylmethyl)-2-oxo-1,2,5,7-tetrahydrofuro[3,4-b]pyridine-3-carboxamido)acetic acid] |
| 10 | CNC(=O)c1ccc(Cn2c3c(c(O)c(C(=O)NCC(=O)O)c2=O)COC3)cc1 [Example 23, 2-(4-hydroxy-1-(4-(methylcarbamoyl)benzyl)-2-oxo-1,2,5,7-tetrahydrofuro[3,4-b]pyridine-3-carboxamido)acetic acid] |
| 9.2 | O=C(O)CNC(=O)c1c(O)c2c(n(Cc3ccccc3)c1=O)COC2 [Example 25, 2-(1-benzyl-4-hydroxy-2-oxo-1,2,5,7-tetrahydrofuro[3,4-b]pyridine-3-carboxamido)acetic acid] |
| 2.7 | O=C(O)CNC(=O)c1c(O)c2c(n(Cc3ccc(F)cc3)c1=O)COC2 [Example 26, 2-(1-(4-fluorobenzyl)-4-hydroxy-2-oxo-1,2,5,7-tetrahydrofuro[3,4-b]pyridine-3-carboxamido)acetic acid] |
| 2.8 | COc1ccc(Cn2c3c(c(O)c(C(=O)NCC(=O)O)c2=O)COC3)cc1 [Example 28, 2-(4-hydroxy-1-(4-methoxybenzyl)-2-oxo-1,2,5,7-tetrahydrofuro[3,4-b]pyridine-3-carboxamido)acetic acid] |

| IC50 [nM] | Compound |
| --- | --- |
| 2.9 | CC(C)c1ccc(Cn2c3c(c(O)c(C(=O)NCC(=O)O)c2=O)COC3)cc1 [Example 29, 2-(4-hydroxy-1-(4-isopropylbenzyl)-2-oxo-1,2,5,7-tetrahydrofuro[3,4-b]pyridine-3-carboxamido)acetic acid] |
| 4 | CC(C)(C)c1ccc(Cn2c3c(c(O)c(C(=O)NCC(=O)O)c2=O)COC3)cc1 [Example 30, 2-(1-(4-(tert-butyl)benzyl)-4-hydroxy-2-oxo-1,2,5,7-tetrahydrofuro[3,4-b]pyridine-3-carboxamido)acetic acid] |
| 2.7 | O=C(O)CNC(=O)c1c(O)c2c(n(Cc3ccc(F)c(F)c3)c1=O)COC2 [Example 31, 2-(1-(3,4-difluorobenzyl)-4-hydroxy-2-oxo-1,2,5,7-tetrahydrofuro[3,4-b]pyridine-3-carboxamido)acetic acid] |
| 4.6 | N#Cc1ccccc1Cn1c2c(c(O)c(C(=O)NCC(=O)O)c1=O)COC2 [Example 33, 2-(1-(2-cyanobenzyl)-4-hydroxy-2-oxo-1,2,5,7-tetrahydrofuro[3,4-b]pyridine-3-carboxamido)acetic acid] |
| 2.5 | N#Cc1cccc(Cn2c3c(c(O)c(C(=O)NCC(=O)O)c2=O)COC3)c1 [Example 34, 2-(1-(3-cyanobenzyl)-4-hydroxy-2-oxo-1,2,5,7-tetrahydrofuro[3,4-b]pyridine-3-carboxamido)acetic acid] |
| 4.6 | O=C(O)CNC(=O)c1c(O)c2c(n(Cc3ccccc3F)c1=O)COC2 [Example 35, 2-(1-(2-fluorobenzyl)-4-hydroxy-2-oxo-1,2,5,7-tetrahydrofuro[3,4-b]pyridine-3-carboxamido)acetic acid] |
| 4.8 | O=C(O)CNC(=O)c1c(O)c2c(n(Cc3ccccn3)c1=O)COC2 [Example 36, 2-((3-((carboxymethyl)carbamoyl)-4-hydroxy-2-oxofuro[3,4-b]pyridin-1(2H,5H,7H)-yl)methyl)pyridin-1-ium chloride] |
| 3.3 | O=C(O)CNC(=O)c1c(O)c2c(n(Cc3cccnc3)c1=O)COC2 [Example 37, 3-((3-((carboxymethyl)carbamoyl)-4-hydroxy-2-oxofuro[3,4-b]pyridin-1(2H,5H,7H)-yl)methyl)pyridin-1-ium chloride] |
| 4.3 | O=C(O)CNC(=O)c1c(O)c2c(n(Cc3cccc(Cl)c3)c1=O)COC2 [Example 38, 2-(1-(3-chlorobenzyl)-4-hydroxy-2-oxo-1,2,5,7-tetrahydrofuro[3,4-b]pyridine-3-carboxamido)acetic acid] |
| 19.7 | COC(=O)c1ccccc1Cn1c2c(c(O)c(C(=O)NCC(=O)O)c1=O)COC2 [Example 39, 2-(4-hydroxy-1-(2-(methoxycarbonyl)benzyl)-2-oxo-1,2,5,7-tetrahydrofuro[3,4-b]pyridine-3-carboxamido)acetic acid] |
| 8.1 | COC(=O)c1cccc(Cn2c3c(c(O)c(C(=O)NCC(=O)O)c2=O)COC3)c1 [Example 40, 2-(4-hydroxy-1-(3-(methoxycarbonyl)benzyl)-2-oxo-1,2,5,7-tetrahydrofuro[3,4-b]pyridine-3-carboxamido)acetic acid] |
| 8.4 | O=C(O)CNC(=O)c1c(O)c2c(n(Cc3cccc(F)c3)c1=O)COC2 [Example 43, 2-(1-(3-fluorobenzyl)-4-hydroxy-2-oxo-1,2,5,7-tetrahydrofuro[3,4-b]pyridine-3-carboxamido)acetic acid] |
| 3.1 | Cc1cc(Cn2c3c(c(O)c(C(=O)NCC(=O)O)c2=O)COC3)ccc1C#N [Example 44, 2-(1-(4-cyano-3-methylbenzyl)-4-hydroxy-2-oxo-1,2,5,7-tetrahydrofuro[3,4-b]pyridine-3-carboxamido)acetic acid] |
| 3.3 | O=C(O)CNC(=O)c1c(O)c2c(n(Cc3ccc(C(F)(F)F)c(Br)c3)c1=O)COC2 [Example 45, 2-(1-(3-bromo-4-(trifluoromethyl)benzyl)-4-hydroxy-2-oxo-1,2,5,7-tetrahydrofuro[3,4-b]pyridine-3-carboxamido)acetic acid] |
| 6.8 | O=C(O)CNC(=O)c1c(O)c2c(n(Cc3ccc4ccccc4c3)c1=O)COC2 [Example 47, 2-(4-hydroxy-1-(naphthalen-2-ylmethyl)-2-oxo-1,2,5,7-tetrahydrofuro[3,4-b]pyridine-3-carboxamido)acetic acid] |
| 12.6 | O=C(O)CNC(=O)c1c(O)c2c(n(Cc3cnc4ccccc4c3)c1=O)COC2 [Example 48, 2-(4-hydroxy-2-oxo-1-(quinolin-3-ylmethyl)-1,2,5,7-tetrahydrofuro[3,4-b]pyridine-3-carboxamido)acetic acid] |

— patent US20170226120A1, “INHIBITORS OF HIF PROLYL HYDROXYLASE” (MERCK SHARP & DOHME CORP., priority 2014, published 2017)
